In US12145923B2, “Tetrahydroisoquinoline compound, preparation method therefor, pharmaceutical composition containing same, and use thereof” (SHANGHAI INSTITUTE OF MATERIA MEDICA, CHINESE ACADEMY OF …, priority 2018, dated 2024):
Where two headings read alike, the source gives them in different places. One block for each compound: values may come before it.

Legend:
[1] = test system: TNF-α secretion in PBMC; test: Inhibition of LPS-stimulated TNF-α secretion in PBMC (ELISA); format: cell-based; conditions: Homo sapiens, TNF-α secretion in PBMC, read-out: Inhibition rate %
[2] = test system: tumor necrosis factor-α secretion in RAW 264.7 cells; test: Inhibition of LPS-stimulated tumor necrosis factor-α secretion in RAW 264.7 cells (ELISA); format: cell-based, mouse; conditions: Mus musculus, RAW264.7, 4 h, read-out: Tumor necrosis factor-α inhibition rate/%; for inhibition at 0.5 µM: RAW 264.7, 0.5 μM; for inhibition at 5 µM: RAW 264.7, 5 μM; for inhibition at 50 µM: RAW 264.7, 50 μM
Method: After the activation by bacterial lipopolysaccharide (LPS), various inflammatory mediators such as tumor necrosis factor-α will be released; Phosphodiesterase PDE4 is also expressed in macrophages, and the inhibitory activity of the compound on phosphodiesterase PDE4 can be reflected by detecting the secretion of tumor necrosis factor-α.
Under the stimulation of 1 μg/ml LPS (L5886, Sigma, St. Louis, MO, USA), the cells were cultured in a 37° C., 5% CO2 incubator for 4 h. The background control with no stimulant and stimulation control wells were also set, with a total volume of 200 μl. The culture supernatant was collected by centrifugation, and the secretion level of tumor necrosis factor-α in the culture supernatant was detected by enzyme-linked immunosorbent assay. The tumor necrosis factor-α detection kit was purchased from BD Pharmingen (San Diego, CA, USA).

[3] = biological target: Human PDE4D catalytic domain (Homo sapiens (Human), UniProt Q08499); test: Scintillation Proximity Assay (SPA), inhibition of PDE4D catalytic domain activity; format: biochemical; conditions: for inhibition at 1 µM: read-out: PDE4D enzyme activity inhibition rate %; for IC50: PDE4D, unit given as mM, read-out: IC50
Chain of Human PDE4D catalytic domain (Q08499 386-715): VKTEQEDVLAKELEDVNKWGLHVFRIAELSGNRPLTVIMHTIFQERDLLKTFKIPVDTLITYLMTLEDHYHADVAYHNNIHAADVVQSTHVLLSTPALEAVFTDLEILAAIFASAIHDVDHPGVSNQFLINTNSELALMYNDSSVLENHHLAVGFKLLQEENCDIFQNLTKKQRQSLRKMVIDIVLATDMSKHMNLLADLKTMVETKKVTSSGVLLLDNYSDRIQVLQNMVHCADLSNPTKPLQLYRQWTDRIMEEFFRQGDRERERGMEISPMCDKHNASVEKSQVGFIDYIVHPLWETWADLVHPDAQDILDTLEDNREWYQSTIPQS
Method: The scintillation Proximity Assay (SPA) method was used to determine the inhibitory effect of compounds on the activity of PDE4D catalytic domain. Human PDE4D catalytic domain protein was obtained by expression and purification in E. coli. […] [^3H]-cAMP, scintillation beads (RPNQO150, Perkin Elmer), and 96-well scintillation microplates (Isoplate-96, Perkin Elmer) were purchased from Perkin Elmer Company.
Finally, 10 μl [^3H]-cAMP (0.005 μCi/μl) was added and incubated for 30 min at 30° C. in a water bath. 50 μl SPA beads was added to quench the reaction, shaked appropriately, and stood for 20 minutes. A microplate scintillation counter was used.

[4] = test system: RAW 264.7 cells; test: Cytotoxicity on RAW 264.7 cells (CCK-8 method); format: cell-based, mouse

- inhibition at 1 µM ([3]; Compound concentration: 1 μM): 92.2%
- IC50 [3]: 0.00025 mM
Compound: CCOc1cc2c(cc1OC)CCN(C(=O)COC)[C@H]2CCc1c[nH]c2ccccc12 [(S)-B12, (S)-1-(1-(2-(1H-indol-3-yl)ethyl)-7-ethoxy-6-methoxy-3,4-dihydroisoquinoline-2(1H)-yl)-2-methoxyethane-1-one]
- inhibition at 1 µM [1]: 44.2%
- inhibition at 10 µM [1]: 80.7%
- inhibition at 0.5 µM [2]: -12.7%
- inhibition at 5 µM [2]: 6.8%
- inhibition at 50 µM [2]: 52.4%
- Cell survival rate/% ([4]; RAW 264.7, 0.5 μM): 83.8%
- Cell survival rate/% ([4]; RAW 264.7, 5 μM): 95.3%
- Cell survival rate/% ([4]; RAW 264.7, 50 μM): 75.2%

- inhibition at 1 µM ([3]; Compound concentration: 1 μM): 68.5%
- IC50 [3]: 0.00057 mM
Compound: COc1cc2c(cc1OC)C(CCc1c[nH]c3ccccc13)N(CCS(C)(=O)=O)CC2 (centres unmarked) [Compound B8, 1-(2-(1H-indol-3-yl)ethyl)-6,7-dimethoxy-2-(2-(methylsulfonyl)ethyl)-1,2,3,4-tetrahydroisoquinoline]
- inhibition at 1 µM [1]: 31.6%
- inhibition at 10 µM [1]: 77.8%
- inhibition at 0.5 µM [2]: 33.6%
- inhibition at 5 µM [2]: 36.1%
- inhibition at 50 µM [2]: 31.8%
- Cell survival rate/% ([4]; RAW 264.7, 0.5 μM): 113.4%
- Cell survival rate/% ([4]; RAW 264.7, 5 μM): 100.7%
- Cell survival rate/% ([4]; RAW 264.7, 50 μM): 100.5%

- inhibition at 1 µM ([3]; Compound concentration: 1 μM): 16.4%
Compound: COc1cc2c(cc1OC)C(CCc1c[nH]c3ccccc13)N(C(=O)C1CCOCC1)CC2 (centres unmarked) [Compound B3, (1-(2-(1H-indol-3-yl)ethyl)-6,7-dimethoxy-3,4-dihydroisoquinoline-2(1H)-yl)(tetrahydro-2H-pyran-4-yl)ketone]
- inhibition at 1 µM [1]: 33.3%
- inhibition at 10 µM [1]: 60.2%
- inhibition at 0.5 µM [2]: 4.4%
- inhibition at 5 µM [2]: 10.8%
- inhibition at 50 µM [2]: 62.5%
- Cell survival rate/% ([4]; RAW 264.7, 0.5 μM): 97.7%
- Cell survival rate/% ([4]; RAW 264.7, 5 μM): 113.9%
- Cell survival rate/% ([4]; RAW 264.7, 50 μM): 79.6%

- inhibition at 1 µM ([3]; Compound concentration: 1 μM): 10.8%
Compound: COc1cc2c(cc1OCc1ccccc1)C(CCc1c[nH]c3ccccc13)N(C=O)CC2 (centres unmarked) [Compound A5, 1-(2-(1H-indol-3-yl)ethyl)-7-(benzyloxy)-6-methoxy-3,4-dihydroisoquinoline-2(1H)-formaldehyde]
- inhibition at 10 µM [1]: 23.8%
- inhibition at 0.5 µM [2]: -0.2%
- inhibition at 5 µM [2]: -8.1%
- inhibition at 50 µM [2]: 79.3%
- Cell survival rate/% ([4]; RAW 264.7, 0.5 μM): 118.7%
- Cell survival rate/% ([4]; RAW 264.7, 5 μM): 120.8%
- Cell survival rate/% ([4]; RAW 264.7, 50 μM): 111.3%

- inhibition at 1 µM ([3]; Compound concentration: 1 μM): 24.1%
Compound: COc1cc2c(cc1OC1CCCC1)[C@H](CCc1c[nH]c3cc(C)ccc13)N(C=O)CC2 [(S)-C3, (S)-7-(cyclopentyloxy)-6-methoxy-1-(2-(6-methyl-1H-indol-3-yl)ethyl)-3,4-dihydroisoquinoline-2(1H)-formaldehyde]
- inhibition at 1 µM [1]: 12.1%
- inhibition at 10 µM [1]: 79.2%
- inhibition at 0.5 µM [2]: 6.3%
- inhibition at 5 µM [2]: 6%
- inhibition at 50 µM [2]: 95.1%
- Cell survival rate/% ([4]; RAW 264.7, 0.5 μM): 88.2%
- Cell survival rate/% ([4]; RAW 264.7, 5 μM): 100%
- Cell survival rate/% ([4]; RAW 264.7, 50 μM): 89.2%

- inhibition at 1 µM ([3]; Compound concentration: 1 μM): 19.5%
Compound: COc1cc2c(cc1OC)C(CCc1c[nH]c3ccccc13)N(CC(F)(F)F)CC2 (centres unmarked) [Compound B6, 1-(2-(1H-indol-3-yl)ethyl)-6,7-dimethoxy-2-(2,2,2-trifluoroethyl)-1,2,3,4-tetrahydroisoquinoline]
- inhibition at 10 µM [1]: -23.2%
- inhibition at 0.5 µM [2]: 8.2%
- inhibition at 5 µM [2]: -7.1%
- inhibition at 50 µM [2]: 67.5%
- Cell survival rate/% ([4]; RAW 264.7, 0.5 μM): 117.3%
- Cell survival rate/% ([4]; RAW 264.7, 5 μM): 87%
- Cell survival rate/% ([4]; RAW 264.7, 50 μM): 95.3%

- inhibition at 1 µM ([3]; Compound concentration: 1 μM): 70.8%
Compound: CCOc1cc2c(cc1OC)CCN(S(=O)(=O)C1CCCCC1)[C@H]2CCc1c[nH]c2ccc(OC)cc12 [(S)-C49, (S)-7-ethoxy-6-methoxy-1-(2-(5-methoxy-1H-indol-3-yl)ethyl)-2-cyclohexylsulfonyl-1,2,3,4-tetrahydroisoquinoline]

Compound: COc1ccc2[nH]cc(CC[C@H]3c4cc(OC(F)F)c(OC)cc4CCN3C=O)c2c1 [(S)-C64, (S)-7-difluoromethoxy-1-(2-(5-methoxy-1H-indol-3-yl)ethyl)-6-methoxy-3,4-dihydroisoquinoline-2(1H)-formaldehyde]
- inhibition at 1 µM [3]: 76.5%

Compound: COc1cc2c(cc1OC)C(CCc1c[nH]c3ccccc13)N(CC1CCOCC1)CC2 (centres unmarked) [Compound B7, 1-(2-(1H-indol-3-yl)ethyl)-6,7-dimethoxy-2-((tetrahydro-2H-pyran-4-yl)methyl)-1,2,3,4-tetrahydroisoquinoline]
- inhibition at 10 µM [1]: 36.6%
- inhibition at 0.5 µM [2]: 4.3%
- inhibition at 5 µM [2]: 2.3%
- inhibition at 50 µM [2]: 82.2%
- inhibition at 1 µM ([3]; Compound concentration: 1 μM): 6.7%
- Cell survival rate/% ([4]; RAW 264.7, 0.5 μM): 98.1%
- Cell survival rate/% ([4]; RAW 264.7, 5 μM): 114.1%
- Cell survival rate/% ([4]; RAW 264.7, 50 μM): 122.6%

- inhibition at 1 µM ([3]; Compound concentration: 1 μM): 42%
Compound: CCOc1cc2c(cc1OC)CCN(S(=O)(=O)c1ccc(OC)cc1)[C@H]2CCc1c[nH]c2ccc(OC)cc12 [(S)-C60, (S)-7-ethoxy-6-methoxy-1-(2-(5-methoxy-1H-indol-3-yl)ethyl)-2-(4-methoxyphenyl)sulfonyl-1,2,3,4-tetrahydroisoquinoline]

- inhibition at 1 µM ([3]; Compound concentration: 1 μM): 66.5%
Compound: CCOc1cc2c(cc1OC)CCN(S(=O)(=O)c1ccccc1F)[C@H]2CCc1c[nH]c2ccc(OC)cc12 [(S)-C57, (S)-7-ethoxy-6-methoxy-1-(2-(5-methoxy-1H-indol-3-yl)ethyl)-2-(2-fluorophenyl)sulfonyl-1,2,3,4-tetrahydroisoquinoline]

Compound: COc1ccc2[nH]cc(CC[C@H]3c4cc(C(F)F)c(OC)cc4CCN3C=O)c2c1 [(S)-C71, (S)-7-difluoromethyl-1-(2-(5-methoxy-1H-indol-3-yl)ethyl)-6-methoxy-3,4-dihydroisoquinoline-2(1H)-formaldehyde]
- inhibition at 1 µM [3]: 81.8%

- inhibition at 1 µM ([3]; Compound concentration: 1 μM): 83.8%
Compound: COc1ccc2[nH]cc(CC[C@H]3c4cc(C(N)=O)c(OC)cc4CCN3C=O)c2c1 [(S)-C70, (S)-2-formyl-6-methoxy-1-(2-(5-methoxy-1H-indol-3-yl)ethyl)-1,2,3,4-tetrahydroisoquinoline-7-carboxamide]

- inhibition at 1 µM ([3]; Compound concentration: 1 μM): 68.7%
Compound: CCOc1cc2c(cc1OC)CCN(C=O)[C@H]2CCc1c[nH]c2ccc(C#N)cc12 [(S)-C65, (S)-7-ethoxy-6-methoxy-1-(2-(5-cyano-1H-indol-3-yl)ethyl)-3,4-dihydroisoquinoline-2(1H)-formaldehyde]

Compound: COC(=O)c1cc2c(cc1OC)CCN(C=O)[C@H]2CCc1c[nH]c2ccc(OC)cc12 [(S)-C66, methyl-(S)-2-formyl-6-methoxy-1-(2-(5-methoxy-1H-indol-3-yl)ethyl)-1,2,3,4-tetrahydroisoquinoline-7-carboxylate]
- inhibition at 1 µM [3]: 88.4%

- inhibition at 1 µM ([3]; Compound concentration: 1 μM): 49.4%
Compound: CCOc1cc2c(cc1OC)CCN(S(=O)(=O)c1ccccc1)[C@H]2CCc1c[nH]c2ccc(OC)cc12 [(S)-C47, (S)-7-ethoxy-6-methoxy-1-(2-(5-methoxy-1H-indol-3-yl)ethyl)-2-phenylsulfonyl-1,2,3,4-tetrahydroisoquinoline]

Compound: COc1ccc2[nH]cc(CC[C@H]3c4cc(OC(F)(F)F)c(OC)cc4CCN3C=O)c2c1 [(S)-C63, (S)-7-trifluoromethoxy-1-(2-(5-methoxy-1H-indol-3-yl)ethyl)-6-methoxy-3,4-dihydroisoquinoline-2(1H)-formaldehyde]
- inhibition at 1 µM [3]: 75.3%

- inhibition at 1 µM ([3]; Compound concentration: 1 μM): 83.1%
Compound: COc1ccc2[nH]cc(CC[C@H]3c4cc(C(=O)O)c(OC)cc4CCN3C=O)c2c1 [(S)-C68, (S)-2-formyl-6-methoxy-1-(2-(5-methoxy-1H-indol-3-yl)ethyl)-1,2,3,4-tetrahydroisoquinoline-7-carboxylic acid]

Compound: COC(=O)c1cc2c(cc1OC)[C@H](CCc1c[nH]c3ccc(OC)cc13)N(C=O)CC2 [(S)-C67, methyl-(S)-2-formyl-7-methoxy-1-(2-(5-methoxy-1H-indol-3-yl)ethyl)-1,2,3,4-tetrahydroisoquinoline-6-carboxylate]
- inhibition at 1 µM [3]: 85.9%

- inhibition at 1 µM ([3]; Compound concentration: 1 μM): 80.5%
Compound: CNC(=O)c1cc2c(cc1OC)CCN(C=O)[C@H]2CCc1c[nH]c2ccc(OC)cc12 [(S)-C69, (S)-2-formyl-6-methoxy-1-(2-(5-methoxy-1H-indol-3-yl)ethyl)-N-methyl-1,2,3,4-tetrahydroisoquinoline-7-carboxamide]

- inhibition at 1 µM ([3]; Compound concentration: 1 μM): 93.5%
Compound: CCOc1cc2c(cc1OC)CCN(C=O)[C@H]2CCc1c[nH]c2ccc(OC(F)F)cc12 [(S)-C77, (S)-7-ethoxy-6-methoxy-1-(2-(5-difluoromethoxy-1H-indol-3-yl)ethyl)-3,4-dihydroisoquinoline-2(1H)-formaldehyde]

- inhibition at 1 µM ([3]; Compound concentration: 1 μM): 66.4%
Compound: CCOc1cc2c(cc1OC)CCN(S(=O)(=O)c1ccc(Br)c(F)c1)[C@H]2CCc1c[nH]c2ccc(OC)cc12 [(S)-C56, (S)-7-ethoxy-6-methoxy-1-(2-(5-methoxy-1H-indol-3-yl)ethyl)-2-(3-fluoro-4-bromophenyl) sulfonyl-1,2,3,4-tetrahydroisoquinoline]

- inhibition at 1 µM ([3]; Compound concentration: 1 μM): 42.4%
Compound: CCOc1cc2c(cc1OC)CCN(C(=O)C(F)F)[C@H]2CCc1c[nH]c2ccc(OC)cc12 [(S)-C59, (S)-7-ethoxy-1-(2-(5-methoxy-1H-indol-3-yl)ethyl)-6-methoxy-3,4-dihydroisoquinolin-2(1H)-2,2-difluoroethane-1-one]

- inhibition at 1 µM ([3]; Compound concentration: 1 μM): 20.5%
Compound: CCOc1cc2c(cc1OC)CCN(S(=O)(=O)c1cccnc1)[C@H]2CCc1c[nH]c2ccc(OC)cc12 [(S)-C55]

- inhibition at 1 µM ([3]; Compound concentration: 1 μM): 37.9%
Compound: CCOc1cc2c(cc1OC)CCN(S(=O)(=O)c1ccc(F)c(F)c1)[C@H]2CCc1c[nH]c2ccc(OC)cc12 [(S)-C51, (S)-7-ethoxy-6-methoxy-1-(2-(5-methoxy-1H-indol-3-yl)ethyl)-2-(3,4-difluorophenyl)sulfonyl-1,2,3,4-tetrahydroisoquinoline]
